Laboratory results reported in EP0536419B1, “TRICYCLIC TRIAZOLE DERIVATIVES, PRODUCTION AND USE THEREOF” (TORAY INDUSTRIES, INC., priority 1991, dated 1992).
Structures can show the parent of a compound that is named as a salt. Where two headings read alike, the source gives them in different places.

Experiments:
[1] = biological target: T1, PAF receptor (Oryctolagus cuniculus, UniProt G1TEI7); test: Binding test using [3H]-PAF (PAF receptor binding test); parameters: species or system rabbit; details: rabbit platelet membrane fraction, [3H]-PAF 0.4 nM, 25°C, 60 minutes; read-out: Receptor Binding Inhibition IC50 (converted)
T1 construct: Cell membrane fraction of rabbit platelets was prepared; from tissue; host or cells: rabbit platelets (cell membrane fraction)
Experimental: Binding Test Using [^3H]-PAF (PAF receptor binding test)
Cell membrane fraction of rabbit platelets was prepared in accordance with the method by Hwang et al (Biochemistry; 22; 4756, (1983)). In 10 mM Tris buffer containing 0.25% bovine serum albumin, 50 mg of this membrane fraction was suspended and tritium-labelled PAF [^3H]-PAF; 0.4 nM) and a test compound were added thereto. After incubating the resulting mixture at 25°C for 60 minutes, the mixture was subjected to filtration through a filter paper made of glass fibers. The filter paper was washed with cold Tris buffer three times and then transferred to a vial. A scintillator was added thereto and the dose of radioactivity was measured with a liquid scintillation counter. The inhibition rate (binding ability) of the test compound was calculated according to the following equation and IC50 values were determined by interpolation. Inhibition Rate (%) = {1 - [((A - B))/((C - B))]} x 100 [formula] (wherein A represents amount bound in the presence of the compound, B represents amount bound by non-specific binding which is the dose of [^3H]-PAF bound radioactivity in the presence of 1 µM of PAF, and C represents total amount bound which is the dose of [^3H]-PAF bound radioactivity.
As a control agent, WEB2086 (Japanese Laid-open Patent Application (Kokai) No. 65-176591) disclosed as a PAF-antagonist was used.

[2] = biological target: rabbit platelets (Oryctolagus cuniculus, UniProt G1TEI7); test: in vitro platelet agglutination inhibition test (PAF-induced); assay type: cell-based; details: rabbit platelet-rich plasma, PAF final concentration 10 ng/ml, 37°C
Experimental: To determine the PAF-antagonizing property of the compounds, the PAF-induced agglutination of rabbit platelets in vitro is utilized. To obtain platelet-rich plasma (PRP), venous blood is taken from rabbit auricular vein into a plastic centrifugal tube containing 1.0% sodium citrate solution. The ratio of sodium citrate solution to blood is 1:10. The obtained citrate-containing blood is centrifuged at 70 x g (625 rpm) at room temperature for 20 minutes and the PRP in the upper layer is transferred to another plastic tube. The remaining lower layer is further centrifuged at 1500 x g (2800 rpm) for 10 minutes and the platelet poor plasma (PPP) in the upper layer is recovered. The platelet agglutination is measured by using aggregometer commercially available from Niko Bioscience, Inc. An aliquote of the PRP is poured into a cubette for measurement. Immediately thereafter, aspirin, creatinin phosphate and creatinin phosphokinase are added to final concentrations of 0.1 mM, 7 mM and 45 U/ml, respectively. Then a solution of a test compound is added and the resulting mixture is stirred at 37°C for 2 minutes. To the resultant, PAF (final concentration: 10 ng/ml) is added to induce platelet aggregation. The platelet aggregation rate is calculated from the relative maximum value in each aggregation curve taking the transmittance of PPP as the maximum aggregation (100% aggregation). Using the aggregation rate when physiological saline was added as a control, the inhibition rate which was the ratio of the aggregation rate when the test compound was added to the control was calculated and the IC50 values were determined by interpolation.

[3] = read-out: PAF-Induced Platelet Aggregation IC50 (converted)

T1 sequence (G1TEI7 1-342): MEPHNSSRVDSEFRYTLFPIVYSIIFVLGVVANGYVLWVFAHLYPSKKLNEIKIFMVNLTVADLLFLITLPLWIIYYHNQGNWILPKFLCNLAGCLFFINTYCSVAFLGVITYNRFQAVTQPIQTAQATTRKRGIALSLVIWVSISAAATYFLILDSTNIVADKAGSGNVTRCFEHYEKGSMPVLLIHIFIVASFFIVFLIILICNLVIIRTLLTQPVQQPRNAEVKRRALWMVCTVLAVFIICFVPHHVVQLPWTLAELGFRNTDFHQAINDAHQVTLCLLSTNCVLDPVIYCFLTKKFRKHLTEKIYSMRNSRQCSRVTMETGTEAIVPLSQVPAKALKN
Sequence of rabbit platelets (G1TEI7 1-342): as above

Row | SMILES | IC50 [1] [nM] | IC50 [2, 3] [nM] | IC50 ([2]; read-out: PAF-Induced Platelet Aggregation IC50) [nM]
1 | Cc1nnc2n1-c1ccccc1N(CCN1CCN(C(c3ccccc3)c3ccccc3)CC1)C2 [Compound 43, 4,5-dihydro-1-methyl-5-[3-[4-(diphenylmethyl)piperazin-1-yl]ethyl][1,2,4]triazolo[4,3-a]quinoxaline fumaric acid salt] | 6460 |  | 
2 | Cc1nnc2n1-c1ccccc1N(CCCN1CCN(C(c3ccccc3)c3ccccc3)CC1)C2 [Compound 44, 4,5-dihydro-1-methyl-5-[3-[4-(diphenylmethyl)piperazin-1-yl]propyl][1,2,4]triazolo[4,3-a]quinoxaline] | 1670 |  | 
3 | CCCc1nnc2n1-c1ccccc1N(CCCN1CCC(c3c[nH]c4ccccc34)CC1)C2 [Compound 53, 4,5-dihydro-1-propyl-5-[3-[4-(3-indolyl)piperidin-1-yl]propyl] [1,2,4]triazolo[4,3-a]quinoxaline] | 3300 | 3960 | 
4 | COc1ccc2[nH]cc(C3CCN(CCCN4Cc5nnc(C)n5-c5ccccc54)CC3)c2c1 [Compound 54, 4,5-dihydro-1-methyl-5-[3-[4-(5-methoxy-3-indolyl)piperidin-1-yl]propyl] [1,2,4]triazolo[4,3-a]quinoxaline] | 1160 |  | 
5 | Cc1nnc2n1-c1ccccc1N(CCCN1CCC(c3c[nH]c4ccc(Cl)cc34)CC1)C2 [Compound 55, 4,5-dihydro-1-methyl-5-[3-[4-(5-chloro-3-indolyl)piperidin-1-yl]propyl] [1,2,4]triazolo[4,3-a]quinoxaline] | 803 |  | 
6 | Cc1nnc2n1-c1ccccc1N(CCCN1CCC(c3c[nH]c4ccc(Br)cc34)CC1)C2 [Compound 56, 4,5-dihydro-1-methyl-5-[3-[4-(5-bromo-3-indolyl)piperidin-1-yl]propyl] [1,2,4]triazolo[4,3-a]quinoxaline] | 950 |  | 
7 | Cc1nnc2n1-c1ccccc1N(CCCN1CCC(c3c[nH]c4ccc(F)cc34)CC1)C2 [Compound 57, 4,5-dihydro-1-methyl-5-[3-[4-(5-fluoro-3-indolyl)piperidin-1-yl]propyl] [1,2,4]triazolo[4,3-a]quinoxaline] | 2700 |  | 
8 | Cc1ccc2[nH]cc(C3CCN(CCCN4Cc5nnc(C)n5-c5ccccc54)CC3)c2c1 [Compound 58, 4,5-dihydro-1-methyl-5-[3-[4-(5-methyl-3-indolyl)piperidin-1-yl]propyl] [1,2,4]triazolo[4,3-a]quinoxaline] | 636 |  | 
9 | Cc1nnc2n1-c1ccccc1N(CCCN1CC=C(c3c[nH]c4ccccc34)CC1)C2 [Compound 63, 4,5-dihydro-1-methyl-5-[3-[1,2,3,6-tetrahydro-4-(3-indolyl)pyridin-1-yl]propyl] [1,2,4]triazolo[4,3-a]quinoxaline] |  |  | 10400
10 | CCn1cc(C2CCN(CCCN3Cc4nnc(C)n4-c4ccccc43)CC2)c2ccccc21 [Compound 64, 4,5-dihydro-1-methyl-5-[3-[4-(1-ethyl-3-indolyl)piperidin-1-yl]propyl][1,2,4]triazolo[4,3-a] quinoxaline fumaric acid salt] | 806 | 2800 | 
11 | Cc1nnc2n1-c1ccc(Cl)cc1N(CCCN1CCC(c3c[nH]c4ccccc34)CC1)C2 [Compound 65, 7-chloro-4,5-dihydro-1-methyl-5-[3-[4-(3-indolyl)piperidin-1-yl]propyl][1,2,4]triazolo[4,3-a]quinoxaline] | 10400 | 4340 | 
12 | Cc1nnc2n1-c1ccc(F)cc1N(CCCN1CCC(c3c[nH]c4ccccc34)CC1)C2 [Compound 66, 7-fluoro-4,5-dihydro-1-methyl-5-[3-[4-(3-indolyl)piperidin-1-yl]propyl][1,2,4]triazolo[4,3-a]quinoxaline] |  | 4270 | 
13 | Cc1nnc2n1-c1ccccc1N(CCCN1CCN(C(c3ccccc3)c3ccc(Cl)cc3)CC1)C2 (centres unmarked) [Compound 69, 4,5-dihydro-1-methyl-5-[3-[4-[(4-chlorophenyl)phenylmethyl]piperazin-1-yl]propyl][1,2,4]triazolo[4,3-a]quinoxaline] | 702 |  | 
14 | Cc1nnc2n1-c1ccccc1N(CCCN1CCC(C(O)(c3ccccc3)c3ccccc3)CC1)C2 [Compound 74, 4,5-dihydro-1-methyl-5-[3-[4-(hydroxydiphenylmethyl)piperidin-1-yl]propyl][1,2,4]triazolo[4,3-a] quinoxaline tartaric acid salt] | 357 |  | 
15 | Cc1nnc2n1-c1ccccc1N(CCCN1CCC(OC(c3ccccc3)c3ccccc3)CC1)C2 [Compound 76, 4,5-dihydro-1-methyl-5-[3-[4-(diphenylmethoxy)piperidin-1-yl]propyl][1,2,4]triazolo[4,3-a] quinoxaline tartaric acid salt] | 202 |  | 
16 | Cc1nnc2n1-c1ccccc1N(CCCN1CCC(=C(c3ccc(F)cc3)c3ccc(F)cc3)CC1)C2 [Compound 77, 4,5-dihydro-1-methyl-5-[3-[4-[bis(4-fluorophenyl)methylene]piperidin-1-yl]propyl][1,2,4]triazolo[4,3-a] quinoxaline] | 190 | 141 | 

Row | SMILES | IC50 [1] [nM] | IC50 [2, 3] [nM] | IC50 ([2]; read-out: PAF-Induced Platelet Aggregation IC50) [nM]
17 | Cc1nnc2n1-c1ccccc1N(CCCN1CCC(=C3c4ccccc4C=Cc4ccccc43)CC1)C2 [Compound 78, 4,5-dihydro-1-methyl-5-[3-[4-(5H-dibenzo[a,d]cyclohepten-5-ylidene)piperidin-1-yl]propyl][1,2,4]triazolo[4,3-a] quinoxaline] | 118 | 4800 | 
18 | Cc1nnc2n1-c1ccccc1N(CCCN1CCC(c3noc4ccccc34)CC1)C2 [Compound 80, 4,5-dihydro-1-methyl-5-[3-[4-(1,2-benzisoxazol-3-yl)piperidin-1-yl]propyl][1,2,4]triazolo[4,3-a] quinoxaline] | 770 | 103 | 
19 | Cc1nnc2n1-c1ccccc1N(CCCN1CCC(n3c(=O)[nH]c4ccccc43)CC1)C2 [Compound 81, 4,5-dihydro-1-methyl-5-[3-[4-(2-keto-1-benzimidazolynyl)piperidin-1-yl]propyl][1,2,4]triazolo[4,3-a] quinoxaline] | 3380 | 1530 | 
20 | Cc1nnc2n1-c1ccccc1N(CCCN1CCC(=C(c3ccccc3)c3ccccc3)C1)C2 [Compound 85, 4,5-dihydro-1-methyl-5-[3-[3-(diphenylmethylene)pyrrolidin-1-yl]propyl][1,2,4]triazolo[4,3-a] quinoxaline] | 238 | 3030 | 
21 | COc1ccccc1N1CCN(CCCN2Cc3nnc(C)n3-c3ccccc32)CC1 [Compound 86, 4,5-dihydro-1-methyl-5-[3-[4-(2-methoxyphenyl)piperazin-1-yl]propyl][1,2,4]triazolo[4,3-a] quinoxaline] | 7170 | 5260 | 
22 | Cc1nnc2n1-c1ccccc1N(CCCN1CCC(=C3c4ccccc4CCc4ccccc43)CC1)C2 [Compound 87, 4,5-dihydro-1-methyl-5-[3-[4-(10,11-dihydro-5H-dibenzo[a,d]cyclohepten-5-ylidene)piperidin-1-yl]propyl][1,2,4]triazolo[4,3-a] quinoxaline] | 199 | 6180 | 
23 | Cc1nnc2n1-c1ccccc1N(CCCN1CCC(=C3c4ccccc4COc4ccccc43)CC1)C2 [Compound 88, 4,5-dihydro-1-methyl-5-[3-[4-(6,11-dihydrodibenzo[b.e]oxepin-11-ylidene)piperidin-1-yl]propyl][1,2,4]triazolo[4,3-a] quinoxaline] | 675 | 1710 | 
24 | Cc1nnc2n1-c1ccccc1N(CCCN1CCC(C(O)(c3ccc(F)cc3)c3ccc(F)cc3)CC1)C2C (centres unmarked) [Compound 90, 4,5-dihydro-1,4-dimethyl-5-[3-[4-[hydroxybis(4-fluorophenyl)methyl]piperidin-1-yl]propyl][1,2,4]triazolo[4,3-a] quinoxaline] | 1820 | 1030 | 
25 | CCc1nnc2n1-c1ccccc1N(CCCN1CCC(=C(c3ccccc3)c3ccccc3)CC1)C2 [Compound 92, 1-ethyl-4,5-dihydro-5-[3-[4-(diphenylmethylene)piperidin-1-yl]propyl][1,2,4]triazolo[4,3-a] quinoxaline] |  | 1350 | 
26 | Cc1nnc2n1-c1ccccc1N(CCCN1CCC(C(O)(c3cccs3)c3cccs3)CC1)C2 [Compound 127] | 152 | 455 | 
27 | Cc1nnc2n1-c1ccccc1N(CCCN1CCC(C(=O)c3ccccc3)CC1)C2 [Compound 128, 4,5-dihydro-1-methyl-5-[3-(4-benzoylpiperidin-1-yl)propyl] [1,2,4]triazolo[4,3-a]quinoxaline] | 1520 | 4090 | 
28 | Cc1nnc2n1-c1ccccc1N(CCCN1CCC(C(O)(c3ccccc3)c3cccs3)CC1)C2 (centres unmarked) [Compound 129] | 340 | 340 | 
29 | COc1ccc(C(O)(c2ccccc2)C2CCN(CCCN3Cc4nnc(C)n4-c4ccccc43)CC2)cc1OC (centres unmarked) [Compound 130, 4,5-dihydro-1-methyl-5-[3-[4-[hydroxy(3,4-dimethoxyphenyl)phenylmethyl]piperidin-1-yl]propyl] [1,2,4]triazolo[4,3-a]quinoxaline] | 126 | 578 | 
30 | Cc1nnc2n1-c1ccccc1N(CCCN1CCC(C(O)(c3ccccc3)c3ccc(N(C)C)cc3)CC1)C2 (centres unmarked) [Compound 131] | 83.8 | 242 | 
31 | Cc1cccc(C(O)(c2ccccc2)C2CCN(CCCN3Cc4nnc(C)n4-c4ccccc43)CC2)c1 (centres unmarked) [Compound 132, 4,5-dihydro-1-methyl-5-[3-[4-[hydroxyphenyl(3-tolyl)methyl]piperidin-1-yl]propyl] [1,2,4]triazolo[4,3-a]quinoxaline] | 51.2 | 70.9 | 
32 | Cc1nnc2n(CCN3CCN(C(c4ccccc4)c4ccccc4)CC3)c3ccccc3n12 [Compound 191, 3-methyl-9-[3-[4-(diphenylmethyl)piperazin-1-yl]ethyl]-9H-[1,2,4]triazolo[4,3-a]benzimidazole fumaric acid salt] | 7100 |  | 
